Reference: paper PMC11396318, “Lupeol-3-carbamate Derivatives: Synthesis and Biological Evaluation as Potential Antitumor Agents” (Molecules, 2024)
Where two headings read alike, the source gives them in different places.

Key:
[1] = tested on: human lung cancer cell line A549; assay: MTT anti-proliferative assay, A549; format: cell-based; settings: read-out: IC50 (μM) A549
From the text: (§1) The anti-proliferative activities of 3a–k against human lung cancer cell line (A549), human hepatoma cell line (HepG2), and human breast cancer cell line (MCF-7) were examined. With lupeol and cisplatin as positive controls, the MTT assay was used to evaluate the anti-proliferative activity of all of the synthesized compounds in vitro.
(§2) The MTT (Beyotime, Shanghai, China) colorimetric method was used to test the antitumor activity of the synthetic products. The test compound and the control compound were prepared into the liquid with a concentration of 1, 5, 10, 20, and 40 μmol/L, respectively. The tested tumor cells (A549, HepG2, MCF-7) (Chinese Academy of Sciences, Shanghai, China) were inoculated into 96 well plates with a density of 2 × 10^4 cells/mL, and 90 μL PBS was injected into each well. The 96 well plates were cultured overnight in an incubator, and each well was injected with the same concentration of 10 μL of the test compound. After 48 h, 10 μL of MTT solution was injected into each well. After culture for 4 h, the plates were turned upside down and 100 μL DMSO (Kermel, Tianjin, China) was added. The optical density (OD) values of the compound and the control product were determined at 490 nm wavelength with enzyme-labeled apparatus.

[2] = tested on: human breast cancer cell line MCF-7; assay: MTT anti-proliferative assay, MCF-7; format: cell-based; settings: read-out: IC50 (μM) MCF-7
From the text: as §1, §2

[3] = tested on: human liver cancer cell line HepG2; assay: MTT anti-proliferative assay, HepG2; format: cell-based; settings: for IC50: read-out: IC50 (μM) HepG2
From the text: as §1, §2

[4] = tested on: PI3K/AKT/mTOR pathway in HepG2 cells; assay: Western blotting of PI3K/AKT/mTOR-related proteins; format: cell-based, human; settings: HepG2, 2, 4 and 8 μmol/L, 48 h, relative to control
Procedure: In order to better comprehend the effect of compound 3k·CH3I on the expression of proteins related to the mitochondrial apoptosis pathway, HepG2 cells were treated with 3k·CH3I at different concentrations (0, 2, 4, and 8 μmol/L), and Western blotting was used to determine the expression of related proteins, as shown in Figure 9.
HepG2 cells with logarithmic growth stage were selected to make a single-cell suspension and inoculated into a culture bottle with a cell density of 1 × 10^6 cells/mL. The cells were treated with different concentrations of compound 3k·CH3I (0, 2, 4 and 8 μmol/L) and cultured for 48 h. A mixture of 500 μL of phenylmethylsulfonyl fluoride (PMSF) and radio immunoprecipitation assay (RIPA) lysate was added to each well, and the protein content was determined using the bicinchoninic acid (BCA) assay and denatured at high temperature 30 min later. The protein samples were separated by polyacrylamide gel electrophoresis (SDS-PAGE) and transferred to a polyvinylidene fluoride (PVDF) membrane. The membrane was enclosed in 5% skim milk for 2 h, then specific antibodies of different proteins were added, incubated at 4 °C overnight, and secondary antibodies were added for 2 h. Finally, the gel imager was used for detection. […] The gray-scale of the bands was analyzed by gel imaging image analysis software and the relative protein content was calculated.

A549, HepG2, MCF-7 = assay: MTT anti-proliferative assay, stated for all three tumor cell lines together; format: cell-based, human; settings: for anti-proliferative activity compared with lupeol: three tested cell lines; for IC50: Homo sapiens, 48 h, A549, HepG2 and MCF-7, 48 h, span or bound over the three lines, read-out: IC50 against all three tumor cell lines
From the text: as §1, §2

HepG2 cells [5] = assay: AO/EB double staining, cell morphology; format: cell-based, human; settings: HepG2, 48 h, 2, 4 and 8 μmol/L
Procedure: The apoptotic morphological alterations induced by compound 3k·CH3I in HepG2 cells were scrutinized after a 48-h treatment using the acridine orange/ethidium bromide (AO/EB) double staining method, as depicted in Figure 6.
In this study, human hepatoma HepG2 cells were treated with compound 3k·CH3I, and the tested cells were stained by the AO/EB double staining (KeyGEN BioTECH, Nanjing, China) method to observe the morphological changes of the cells. HepG2 cells of logarithmic growth stage were inoculated into confocal six-well plates, and a volume of 2 mL of the cell suspension, adjusted to a concentration of 1 × 10^6 cells per milliliter, was introduced into each well. The cells were cultured in an aseptic constant temperature incubator for 24 h, and 3k·CH3I solution with concentrations of 0, 2, 4, and 8 μmol/L was added successively, and the culture continued for 48 h. The cellular specimens were rinsed with phosphate-buffered saline (PBS) on two occasions, after which 500 µL of staining buffer was introduced to the preparation, followed by storage in a light-protected environment for subsequent analysis. AO (5 µL) and EB (5 µL) staining solutions were added to the six-well plates successively, mixed and incubated at 4 °C for 20 min under light protection, then PBS was added and observed under a fluorescence microscope.

HepG2 cells [6] = assay: Annexin V/PI apoptosis by flow cytometry; format: cell-based, human; settings: 48 h, control 3.03%
Procedure: HepG2 cells with logarithmic growth stage were selected and inoculated into a designated confocal six-well plate with 2 mL cell suspension per well (1 × 10^6 cells/mL) and cultured in a sterile incubator for 24 h. […] The cellular preparations were initially rinsed with phosphate-buffered saline (PBS), followed by enzymatic detachment using a 0.25% trypsin solution. Post-collection, the cells underwent centrifugation at 800 revolutions per minute (rpm) for a duration of 5 min to pelletize. The resulting cell pellet was subsequently re-suspended in 1 mL of culture medium designed for cell propagation. The 100 µL cell suspension was transferred into a flow detection tube, with 5 µL AnnexinV added, cultured at room temperature away from light for 15 min, and centrifuged at 800 revolutions per minute (rpm) for a period of 5 min, after which the supernatant containing the staining solution was aspirated. Then, 100 µL of binding buffer for re-suspension and 5 µL of PI dye were added and the solution was mixed well and incubated at low temperature, avoiding light for 15 min. The results were measured by flow cytometry.

HepG2 cells [7] = assay: Mitochondrial membrane potential depolarization, JC-1; format: cell-based, human; settings: 48 h; for MMP depolarization: JC-1 flow cytometry, control 7.74%
From the text: In order to explore the effect of compound 3k·CH3I on MMP, a JC-1 staining kit was used to detect the depolarization of the MMP of human hepatocellular carcinoma HepG2 cells treated with compound 3k·CH3I, as shown in Figure 8.
Flow cytometry was used to detect the intimal potential of HepG2 cells. […] It was concluded that the apoptosis of HepG2 cells was induced by compound 3k·CH3I and was associated with the mitochondrial-mediated endogenous pathway.
HepG2 cells with logarithmic growth stage were selected and inoculated into a designated confocal six-well plate with 2 mL cell suspension per well (1 × 10^6 cells/mL) and cultured in a sterile incubator for 24 h. The cells were treated with different concentrations of 3k·CH3I (0, 2, 4, 8 μmol/L) and continued to be cultured for 48 h. PBS cleans the cells, 0.25% trypsin digests the cells, and collects the cells. After the drug action time was over, 1 mL of pre-configured JC-1 staining solution was added and incubated for 30 min. After JC-1 incubation, the cells were observed by fluorescence microscope, the supernatant was separated, and the PBS cell suspension was taken and the experimental results were determined by flow cytometry.

HepG2 cells [8] = assay: Intracellular ROS, DCFH-DA, flow cytometry; format: cell-based, human; settings: HepG2, 2, 4 and 8 μmol/L, 48 h, compared with the control group
Procedure: Flow cytometry was additionally used to determine the effect of compound 3k·CH3I on ROS levels in HepG2 cells.
HepG2 cells were inoculated into a six-well plate with 2 mL cell suspension per well at a concentration of 1 × 10^6 cells/mL overnight in an incubation chamber maintained at 37 °C with a 5% CO2 atmosphere. The cells were treated with different concentrations of compound 3k·CH3I (0, 2, 4 and 8 μmol/L) and continued to be cultured for 48 h. The cells underwent a PBS rinse to cleanse them, subsequent digestion with a 0.25% trypsin solution to facilitate detachment, and subsequent centrifugation at 800 revolutions per minute (rpm) for 5 min to sediment the cells. The ensuing cell pellet was then re-suspended in 1 mL of nutrient-rich cell culture medium for further experimental procedures. Then, 5 μmol/L DCFH-DA solution was added to each well and they were incubated for 30 min away from light. After incubation, the cells were digested, the supernatant was centrifuged, and the PBS cell suspension was taken and placed in a flow cytometry to determine the experimental results.

[9] = Homo sapiens, A549, MTT assay, 48 h of treatment, three independent experiments
[10] = Homo sapiens, MCF7, MTT assay, 48 h of treatment, three independent experiments
[11] = Homo sapiens, HepG2, MTT assay, 48 h of treatment, three independent experiments
[12] = MTT assay, 48 h of treatment, three independent experiments

Structure (SMILES)	IC50 [1, 9]	IC50 [2, 10]	IC50 [3, 11]	anti-proliferative activity compared with lupeol (A549, HepG2, MCF-7)	further results
C=C(C)[C@@H]1CC[C@]2(C)CC[C@]3(C)C(CCC4[C@@]5(C)CC[C@H](OC(=O)N6CCOCC6)C(C)(C)C5CC[C@]43C)C12 (stereo partly shown) [Compound 3f, Lupeol-3-(morpholine-1-carboxylate)]	6.76 ± 0.96 µM	11.3 ± 1.21 µM	10.8 ± 1.52 µM		
C=C(C)[C@@H]1CC[C@]2(C)CC[C@]3(C)C(CCC4[C@@]5(C)CC[C@H](OC(=O)N6CCN(C)CC6)C(C)(C)C5CC[C@]43C)C12 (stereo partly shown) [Compound 3i, Lupeol-3-((4-methylpiperazine)-1-carboxylate)]	5.74 ± 0.83 µM	8.2 ± 1.46 µM	9.43 ± 1.21 µM		
C=C(C)[C@@H]1CC[C@]2(C)CC[C@]3(C)C(CCC4[C@@]5(C)CC[C@H](OC(=O)N6CCCC6)C(C)(C)C5CC[C@]43C)C12 (stereo partly shown) [Compound 3d, Lupeol-3-(pyrrolidine-1-carboxylate)]	11.3 ± 1.14 µM	12.4 ± 1.55 µM	17.7 ± 1.35 µM		
C=C(C)[C@@H]1CC[C@]2(C)CC[C@]3(C)[C@H](CC[C@@H]4[C@@]5(C)CC[C@H](O)C(C)(C)[C@@H]5CC[C@]43C)[C@@H]12 [Lupeol]	35.9 ± 1.58 µM	62 ± 1.79 µM	43.6 ± 1.37 µM		
C=C(C)[C@@H]1CC[C@]2(C)CC[C@]3(C)C(CCC4[C@@]5(C)CC[C@H](OC(=O)N(C)C)C(C)(C)C5CC[C@]43C)C12 (stereo partly shown) [Compound 3a, Lupeol-3-(dimethyl) Carbamate]					IC50 ([1]; Homo sapiens, A549, 48 h): 14 ± 1.03 µM; IC50 ([2]; Homo sapiens, MCF7, 48 h): 10.2 ± 1.24 µM; IC50 ([3]; Homo sapiens, HepG2, 48 h): 11.1 ± 1.45 µM
C=C(C)C1CCC2(C)CCC3(C)C(CCC4C5(C)CCC(OC(=O)N6CCN(c7cc[n+](C)cc7)CC6)C(C)(C)C5CCC43C)C12 (stereo not shown) [Compound 3k·CH3I]			3.13 µM	more potent than that of lupeol	expression of P-AKT, P-PI3K and P-mTOR [4]: downregulation; expression of basal forms of AKT, PI3K and mTOR [4]: dose-dependent upregulation; apoptotic morphological alterations (AO/EB staining) (HepG2 cells [5]): bright red fluorescence due to the chromatin concentration and nuclear fragmentation; activity on HepG2 relative to lupeol ([3]; HepG2, ratio of IC50): about 10 times; total percentage of apoptotic and necrotic cells (HepG2 cells [6]; HepG2, 4 μmol/L): 45.10%; total percentage of apoptotic and necrotic cells (HepG2 cells [6]; HepG2, 8 μmol/L): 55.6%; MMP depolarization (HepG2 cells [7]; HepG2, 2 μmol/L): 17.2%; MMP depolarization (HepG2 cells [7]; HepG2, 4 μmol/L): 27.3%; MMP depolarization (HepG2 cells [7]; HepG2, 8 μmol/L): 48.9%; JC-1 fluorescence (microscopy) (HepG2 cells [7]; HepG2, different concentrations, compared with the control group): the red fluorescence gradually weakened until it eventually disappeared, and the green fluorescence gradually strengthened; ROS levels (HepG2 cells [8]): increased significantly
C=C(C)[C@@H]1CC[C@]2(C)CC[C@]3(C)C(CCC4[C@@]5(C)CC[C@H](OC(=O)N6CCCCC6)C(C)(C)C5CC[C@]43C)C12 (stereo partly shown) [Compound 3e, Lupeol-3-(piperidine-1-carboxylate)]	13.2 ± 1.56 µM	14 ± 1.58 µM	6.91 ± 1.6 µM	more potent than that of lupeol	IC50 (A549, HepG2, MCF-7): < 20 µM
C=C(C)[C@@H]1CC[C@]2(C)CC[C@]3(C)C(CCC4[C@@]5(C)CC[C@H](OC(=O)N6CCNCC6)C(C)(C)C5CC[C@]43C)C12 (stereo partly shown) [Compound 3h, Lupeol-3-(piperazine-1-carboxylate)]	12 ± 1.47 µM	9.78 ± 1.2 µM	11.2 ± 1.45 µM		IC50 (A549, HepG2, MCF-7): < 20 µM
C=C(C)C1CCC2(C)CCC3(C)C(CCC4C5(C)CCC(OC(=O)N6CCN(c7ccncc7)CC6)C(C)(C)C5CCC43C)C12 (stereo not shown) [Compound 3k, Lupeol-3-((4-(pyridin-4-yl)piperazine)-1-carboxylate)]	12.1 ± 1.35 µM	19.9 ± 1.82 µM	14 ± 1.65 µM	more potent than that of lupeol	IC50 (A549, HepG2, MCF-7): < 20 µM
C=C(C)[C@@H]1CC[C@]2(C)CC[C@]3(C)C(CCC4[C@@]5(C)CC[C@H](OC(=O)N(CC)CC)C(C)(C)C5CC[C@]43C)C12 (stereo partly shown) [Compound 3b, Lupeol-3-(diethyl) Carbamate]					IC50 ([1]; Homo sapiens, A549, 48 h): 14 ± 1.25 µM; IC50 ([2]; Homo sapiens, MCF7, 48 h): 12.7 ± 1.43 µM; IC50 ([3]; Homo sapiens, HepG2, 48 h): 13.8 ± 1.23 µM
C=C(C)[C@@H]1CC[C@]2(C)CC[C@]3(C)C(CCC4[C@@]5(C)CC[C@H](OC(=O)N(CCC)CCC)C(C)(C)C5CC[C@]43C)C12 (stereo partly shown) [Compound 3c, Lupeol-3-(dipropyl) Carbamate]	15.5 ± 1.2 µM	15.3 ± 1.11 µM	5.39 ± 0.77 µM	more potent than that of lupeol	
C=C(C)[C@@H]1CC[C@]2(C)CC[C@]3(C)C(CCC4[C@@]5(C)CC[C@H](OC(=O)N6CCSCC6)C(C)(C)C5CC[C@]43C)C12 (stereo partly shown) [Compound 3g, Lupeol-3-(thiomorpholine-1-carboxylate)]	8.19 ± 1.02 µM	7.77 ± 1.09 µM	10.1 ± 1.78 µM		
N.N.[Cl][Pt][Cl] [Cisplatin, reference compound]					IC50 [1, 12]: 4.65 ± 0.52 µM; IC50 [2, 12]: 5.27 ± 0.68 µM; IC50 [3, 12]: 4.05 ± 0.45 µM
